These results are taken from the supplement of paper PMC6470124.

Data set [1] is described as follows: LC retention time (Atlantis T3, 5-95% MeOH gradient, 0.1% formic acid); higher = more retained / less polar. In outline: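 Retention times were recorded for reference standards (purity ≥ 95%) on a polar reversed-phase C18 column (Atlantis T3, 3 × 150 mm, 3 μm) at 0.3 mL/min. Elution used water and methanol, each with 0.1% formic acid, in a gradient from 5 to 95% methanol over 17.5 min. Detection was by high-resolution tandem mass spectrometry on a QExactive Plus, with positive and negative electrospray in separate runs. Peaks were found and integrated in TraceFinder (5 ppm tolerance, at least three points per peak) and then checked by hand.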

Data set [2] in a line: absolute recovery over mixed-bed multilayer solid-phase extraction; higher = better recovery. The note with it: enrichment method: SPE. In outline: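 Absolute recovery rests on background-corrected response ratios of pre- versus post-spiked samples, averaged over at least two replicates. Wastewater (100–250 mL, pH 6.5, glass-fibre filtered) was spiked at 1000 ng/L and unfiltered nanopure water (1000 mL) at 200 ng/L, before or after three-layer mixed-bed cartridge extraction or not at all, with exceptions for some classes. Analysis after internal standard addition used liquid chromatography with high-resolution tandem mass spectrometry in both ionisation modes.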

Data set [3] in a line: absolute recovery over vacuum-assisted evaporative concentration; higher = better recovery. The settings on record: enrichment method: VEC. In outline: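 Samples of influent (6 mL), effluent (15 mL) and surface or nanopure water (60 mL) were spiked with standards before or after concentration, or left unspiked, at 200 ng/L (nanopure/surface) or 1000 ng/L (wastewater), adjusted by class and compound. Concentration was by evaporation at 55 °C and 20 mbar to about 0.3 mL, followed by adjustment to 0.4 mL and centrifugation. Internal standards were then added for LC-HRMS/MS analysis. Absolute recovery was (response ratio pre − unspiked)/(post − unspiked) × 100, using averages of ≥ 2 replicates.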

Compound `CCNc1nc(Cl)nc(NC(C)(C)C)n1` [Terbutylazin] returned an LC retention time in data set [1] of 19.7 min. Also, the absolute recovery in data set [2] (nanopure water) was found to be 94.9%; in data set [2] (surface water) it was 95%; in data set [2] (wastewater effluent) it was 93.8%; in data set [2] (wastewater influent), 93.4%; in data set [3] (wastewater effluent), 95%; in data set [3] (wastewater influent), 91.9%.

With `CCOCN(C(=O)CCl)c1c(C)cccc1CC` [Acetochlor B], the LC retention time in data set [1] amounted to 20.4 min. Also, the absolute recovery was found to be 94% in data set [2] (nanopure water); 93.3% in data set [2] (surface water); 91.1% in data set [2] (wastewater effluent); 91.6% in data set [2] (wastewater influent); 83.4% in data set [3] (wastewater effluent); 76.8% in data set [3] (wastewater influent).

The compound `N#CN=C1SCCN1Cc1ccc(Cl)nc1` [Thiacloprid] came in with an LC retention time in data set [1] of 15.1 min. Also, the absolute recovery was 97.8% in data set [2] (nanopure water); 96.9% in data set [2] (wastewater effluent); 87.5% in data set [2] (wastewater influent); 102% in data set [3] (wastewater effluent); 106% in data set [3] (wastewater influent).

In data set [1], `CC(C)N1C(=O)c2ccccc2[N-]S1(=O)=O` [Bentazon] returned an LC retention time of 17.8 min. Further, the absolute recovery is 97.3% in data set [2] (nanopure water); 97.5% in data set [2] (surface water); 93.1% in data set [2] (wastewater influent); 105% in data set [3] (wastewater effluent); 101% in data set [3] (wastewater influent).

As to `C#CC[NH2+]C(C)Cc1ccccc1` (centres undefined) [Nordeprenyl], the LC retention time in data set [1] is 11.5 min. For the same compound, the absolute recovery in data set [2] (nanopure water) was 74.8%; in data set [2] (surface water) it was 84.7%; in data set [2] (wastewater effluent), 80.2%; in data set [2] (wastewater influent), 78.3%; in data set [3] (wastewater effluent), 38.9%; in data set [3] (wastewater influent), 11.4%.

`CC(C)Nc1nc(N)nc(Cl)n1` [Atrazin-Desethyl] returned an LC retention time in data set [1] of 15.3 min. For the same compound, the absolute recovery in data set [2] (nanopure water) came out at 92.5%; in data set [2] (surface water), 96.9%; in data set [2] (wastewater effluent) it was 92.1%; in data set [2] (wastewater influent), 91.6%; in data set [3] (wastewater effluent), 102%; in data set [3] (wastewater influent), 101%.

`COc1ccc2c(c1)c(CC(=O)[O-])c(C)n2C(=O)c1ccc(Cl)cc1` [Indomethacin] gave an LC retention time in data set [1] of 20.8 min. Besides, the absolute recovery worked out at 93.9% in data set [2] (nanopure water); 95% in data set [2] (surface water); 91.2% in data set [2] (wastewater effluent); 91.5% in data set [2] (wastewater influent); 104% in data set [3] (wastewater effluent); 98.9% in data set [3] (wastewater influent).

The compound `CC(C)(C)C(=O)C(Oc1ccc(Cl)cc1)n1ccnc1` (centres undefined) [Climbazol] gave an LC retention time in data set [1] of 16.5 min. Also, the absolute recovery in data set [2] (nanopure water) is 98.6%; in data set [2] (surface water) it was 96.1%; in data set [2] (wastewater effluent) it was 91.7%; in data set [2] (wastewater influent) it was 90.1%; in data set [3] (wastewater effluent), 106%; in data set [3] (wastewater influent), 101%.

The compound `CC(C)CC(C)(O)C#CC(C)(O)CC(C)C` (centres undefined) [Surfynol-104A] showed an LC retention time in data set [1] of 20.9 min. Besides, the absolute recovery in data set [2] (nanopure water) worked out at 86.2%; in data set [2] (wastewater effluent), 73.8%; in data set [2] (wastewater influent), 143%; in data set [3] (wastewater effluent) it was 75.3%; in data set [3] (wastewater influent), 70.8%.

In data set [1], `O=C1C(Cl)C(CCl)CN1c1cccc(C(F)(F)F)c1` (centres undefined) [Flurochloridon] had an LC retention time of 19.9 min. Besides, the absolute recovery was found to be 98.1% in data set [2] (nanopure water); 104% in data set [2] (surface water); 106% in data set [2] (wastewater effluent); 98% in data set [2] (wastewater influent); 92% in data set [3] (wastewater effluent); 60.5% in data set [3] (wastewater influent).

Regarding `c1ccc(C2CN3CCSC3=[NH+]2)cc1` (centres undefined) [Levamisol], the LC retention time in data set [1] was found to be 9.66 min. In addition, the absolute recovery in data set [2] (nanopure water) stood at 84.8%; in data set [2] (surface water), 81.9%; in data set [2] (wastewater effluent), 83.8%; in data set [2] (wastewater influent) it was 82%; in data set [3] (wastewater effluent), 104%; in data set [3] (wastewater influent) it was 98.7%.

In data set [1], `CCC(CC)OC1C=C(C(=O)[O-])CC([NH3+])C1NC(C)=O` (centres undefined) [Oseltamivir-carboxylat] gave an LC retention time of 12.5 min. Moreover, the absolute recovery in data set [2] (nanopure water) turned out to be 75.9%; in data set [2] (surface water), 24.7%; in data set [2] (wastewater effluent), 44.2%; in data set [2] (wastewater influent) it was 60.1%; in data set [3] (wastewater effluent), 105%; in data set [3] (wastewater influent), 105%.

In data set [1], `CS(=O)(=O)c1cc(C(F)(F)F)ccc1C(=O)c1cnoc1C1CC1` [Isoxaflutole] returned an LC retention time of 18.3 min. In addition, the absolute recovery in data set [2] (nanopure water) came to 19.2%; in data set [2] (surface water), 21.8%; in data set [2] (wastewater effluent) it was 22.8%; in data set [2] (wastewater influent), 35.1%; in data set [3] (wastewater effluent), 74.8%.

The compound `CC(=O)N1CCN(c2ccc(OCC3COC(Cn4cc[nH+]c4)(c4ccc(Cl)cc4Cl)O3)cc2)CC1` (centres undefined) [Ketoconazol] registered an LC retention time in data set [1] of 16 min. The absolute recovery turned out to be 80.2% in data set [2] (nanopure water); 62.2% in data set [2] (surface water); 66.4% in data set [2] (wastewater effluent); 85.8% in data set [2] (wastewater influent); 71.5% in data set [3] (wastewater effluent).

In the case of `CC(Oc1ccc(Oc2ccc(C(F)(F)F)cn2)cc1)C(=O)[O-]` (centres undefined) [Fluazifop], the LC retention time in data set [1] is 19.7 min. For the same compound, the absolute recovery in data set [2] (nanopure water) is 99.5%; in data set [2] (surface water) it was 96.8%; in data set [2] (wastewater effluent), 96.6%; in data set [2] (wastewater influent), 98%; in data set [3] (wastewater effluent) it was 101%; in data set [3] (wastewater influent), 102%.

In the case of `CC(C)(C(=O)[O-])c1ccc(C(O)CCC[NH+]2CCC(C(O)(c3ccccc3)c3ccccc3)CC2)cc1` (centres undefined) [Fexofenadin], the LC retention time in data set [1] is 15.7 min. The absolute recovery in data set [2] (nanopure water) came out at 97%; in data set [2] (surface water) it was 99.3%; in data set [2] (wastewater effluent), 91.4%; in data set [2] (wastewater influent), 101%; in data set [3] (wastewater effluent), 105%; in data set [3] (wastewater influent), 101%.

In turn, `CCC(C)C(=O)OC1CC(O)C=C2C=CC(C)C(CCC(O)CC(O)CC(=O)[O-])C21` (centres undefined) [Pravastatin] showed an LC retention time in data set [1] of 18.4 min. The absolute recovery is 92.4% in data set [2] (nanopure water); 91.2% in data set [2] (surface water); 94% in data set [2] (wastewater effluent); 95.1% in data set [2] (wastewater influent); 99.2% in data set [3] (wastewater effluent); 103% in data set [3] (wastewater influent).

As for `C[NH+](C)CCC=C1c2ccccc2COc2ccc(CC(=O)[O-])cc21` [Olopatadine], the LC retention time in data set [1] was determined as 14.9 min. Besides, the absolute recovery in data set [2] (nanopure water) was 82.8%; in data set [2] (surface water), 86.5%; in data set [2] (wastewater effluent), 91.2%; in data set [2] (wastewater influent), 84.9%; in data set [3] (wastewater effluent), 100%; in data set [3] (wastewater influent), 102%.

In turn, `CC1CC2C(C(O)CC3(C)C2CCC3(O)C(=O)CO)C2(C)C=CC(=O)C=C12` (centres undefined) [Methylprednisolon] yielded an LC retention time in data set [1] of 18.9 min. The absolute recovery was determined as 93.1% in data set [2] (nanopure water); 92.3% in data set [2] (surface water); 84.4% in data set [2] (wastewater effluent); 88.4% in data set [2] (wastewater influent); 106% in data set [3] (wastewater effluent); 101% in data set [3] (wastewater influent).

For the compound `C[NH+]1CCCC1c1cccnc1` (centres undefined) [Nicotine], in data set [1], the LC retention time is 11.1 min. Besides, the absolute recovery in data set [2] (nanopure water) worked out at 35.1%; in data set [2] (surface water) it was 27.7%; in data set [2] (wastewater effluent) it was 47.9%; in data set [2] (wastewater influent) it was 52.5%; in data set [3] (wastewater effluent), 76.9%; in data set [3] (wastewater influent), 79.1%.

On to `CN1CC[NH+]=C(c2ccccc2)c2cc(Cl)ccc21` [Medazepam], for which the LC retention time in data set [1] was determined as 14.5 min. Besides, the absolute recovery is 83.9% in data set [2] (nanopure water); 95.2% in data set [2] (surface water); 93.6% in data set [2] (wastewater effluent); 68.8% in data set [2] (wastewater influent); 103% in data set [3] (wastewater effluent); 109% in data set [3] (wastewater influent).

On to `NC(=O)c1c(Cl)cccc1Cl` [2-6-Dichlorbenzamid], for which, in data set [1], the LC retention time came out at 12.7 min. The absolute recovery in data set [2] (nanopure water) came to 93.7%; in data set [2] (surface water) it was 94.9%; in data set [2] (wastewater effluent), 93.8%; in data set [2] (wastewater influent), 93.9%; in data set [3] (wastewater effluent) it was 102%; in data set [3] (wastewater influent), 107%.
